Data on two compounds can be found in patent publication US8323624B2, “S-triazine sunscreens bearing hindered para-aminobenzalmalonate/para-aminobenzalmalonamide and aminobenzoate/aminobenzamide substituents” (L'Oreal, priority 2004, dated 2012).

This series is described as follows: Photostability of oily-solution films under solar simulator irradiation, quantified by HPLC. As to conditions: 2% by weight in the oil Miglyol 812, film on ground glass; irradiated one hour with Oriel solar simulator (UV-A=14.2 mW/cm^2; UV-B=0.41 mW/cm^2); HPLC vs non-irradiated controls; means over 3 samples. Format: physicochemical. Here is the method: The two products were dissolved at 2% by weight in the oil Miglyol 812. Approximately 10 mg of oily solution are spread over 10 cm^2 at the surface of a hollow disc made of ground glass; the amount is determined by weighing.
The films of the oily solutions are irradiated for one hour using an Oriel solar simulator (UV-A=14.2 mW/cm^2; UV-B=0.41 mW/cm^2) and then extracted with 10 ml of ethanol comprising 10% of isopropanol subjected to ultrasound for 5 min. The products are quantified by analyzing the extracts by HPLC.
HPLC conditions: column: UP5WOD-25QS, 250×4.6 mm, 5 μm, Interchrom; eluent: methanol (Comparative Example 1) and 98% methanol+2% water (Example 1); flow rate: 1 ml/min; volume injected: 10 μl; detection: diode array detector; rt (min): 5.2 (compound of the prior art) and 7.4 (compound of Example 1).
The levels of loss are determined by comparison of the amounts of product present in the irradiated samples and in the non-irradiated controls prepared simultaneously and treated in the same way (means over 3 samples; A=area/mg of solution): % loss=100×(A0−Airr)/A0

SMILES strings stand for the structures.

As to `CC(C)COC(=O)C(=Cc1ccc(Nc2nc(Nc3ccc(C=C(C(=O)OCC(C)C)C(=O)OCC(C)C)cc3)nc(Nc3ccc(C=C(C(=O)OCC(C)C)C(=O)OCC(C)C)cc3)n2)cc1)C(=O)OCC(C)C` [Compound (prior art), 2,4,6-Tris(diisobutyl 4′-aminobenzalmalonate)-s-triazine], the “% of disappearance (mean loss)” value was 10.0%.
The same measure for `CCCCOC(=O)c1ccc(Nc2nc(Nc3ccc(C=C(C(=O)OCC(C)(C)C)C(=O)OCC(C)(C)C)cc3)nc(Nc3ccc(C=C(C(=O)OCC(C)(C)C)C(=O)OCC(C)(C)C)cc3)n2)cc1` [Compound of formula (1), 2,4-bis(dineopentyl 4′-aminobenzalmalonate)-6-(butyl 4″-aminobenzoate)-s-triazine]: 4.6%.
